Experimental data: BindingDB's records for doi:10.1021/jm00075a032 (University of Bologna, 1993)

How the values were obtained:
[1] = biological target: T1, Muscarinic acetylcholine receptor M2 (Rattus norvegicus, UniProt P10980)
T1 sequence (P10980 whole entry): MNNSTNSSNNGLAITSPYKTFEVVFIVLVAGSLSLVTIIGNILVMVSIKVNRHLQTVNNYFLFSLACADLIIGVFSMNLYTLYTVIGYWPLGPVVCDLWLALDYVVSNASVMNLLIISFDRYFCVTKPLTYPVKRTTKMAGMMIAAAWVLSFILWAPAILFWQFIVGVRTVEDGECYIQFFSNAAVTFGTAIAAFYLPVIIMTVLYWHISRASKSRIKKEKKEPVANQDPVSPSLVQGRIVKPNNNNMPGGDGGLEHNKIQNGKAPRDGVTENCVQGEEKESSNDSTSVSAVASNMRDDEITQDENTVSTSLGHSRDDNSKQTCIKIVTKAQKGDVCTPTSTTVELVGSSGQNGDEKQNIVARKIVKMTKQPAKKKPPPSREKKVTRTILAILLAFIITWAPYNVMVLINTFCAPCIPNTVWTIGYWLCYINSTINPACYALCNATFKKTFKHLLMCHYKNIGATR

[2] = biological target: T2, Muscarinic acetylcholine receptor M1 (Rattus norvegicus, UniProt P08482)
T2 sequence (P08482 whole entry): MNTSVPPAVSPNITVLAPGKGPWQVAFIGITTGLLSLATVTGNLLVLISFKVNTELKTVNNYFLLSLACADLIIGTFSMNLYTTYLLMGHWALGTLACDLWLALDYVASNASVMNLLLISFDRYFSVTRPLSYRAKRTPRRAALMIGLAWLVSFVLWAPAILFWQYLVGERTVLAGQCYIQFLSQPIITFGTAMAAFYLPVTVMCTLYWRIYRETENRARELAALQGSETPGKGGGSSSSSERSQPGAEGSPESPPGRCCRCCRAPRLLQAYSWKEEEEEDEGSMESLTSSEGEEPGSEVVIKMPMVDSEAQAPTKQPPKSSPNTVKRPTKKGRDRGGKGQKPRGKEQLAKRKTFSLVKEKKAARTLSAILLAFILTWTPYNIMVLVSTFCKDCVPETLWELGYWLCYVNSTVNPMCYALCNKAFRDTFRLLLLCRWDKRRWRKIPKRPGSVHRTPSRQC

[3] = biological target: Muscarinic acetylcholine receptor M3 (Rattus norvegicus, UniProt P08483)
Muscarinic acetylcholine receptor M3, sequence (P08483 whole entry): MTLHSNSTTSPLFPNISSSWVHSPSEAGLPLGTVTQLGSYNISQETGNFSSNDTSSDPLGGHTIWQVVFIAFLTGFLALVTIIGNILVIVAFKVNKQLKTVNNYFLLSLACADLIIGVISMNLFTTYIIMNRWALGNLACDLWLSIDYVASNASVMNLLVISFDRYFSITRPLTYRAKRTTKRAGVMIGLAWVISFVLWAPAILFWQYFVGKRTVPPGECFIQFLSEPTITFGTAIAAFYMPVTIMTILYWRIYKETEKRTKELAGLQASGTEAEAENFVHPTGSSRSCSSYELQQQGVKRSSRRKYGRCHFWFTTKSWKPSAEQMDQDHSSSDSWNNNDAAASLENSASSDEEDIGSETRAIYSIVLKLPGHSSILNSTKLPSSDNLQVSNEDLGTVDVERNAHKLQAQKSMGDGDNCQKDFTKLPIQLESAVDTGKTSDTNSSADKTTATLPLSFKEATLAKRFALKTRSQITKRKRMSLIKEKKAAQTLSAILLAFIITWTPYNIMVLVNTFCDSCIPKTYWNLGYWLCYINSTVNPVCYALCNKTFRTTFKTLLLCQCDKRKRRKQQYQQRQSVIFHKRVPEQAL

[4] = biological target: T3, Muscarinic acetylcholine receptor M4 (Rattus norvegicus, UniProt P08485)
T3 sequence (P08485 whole entry): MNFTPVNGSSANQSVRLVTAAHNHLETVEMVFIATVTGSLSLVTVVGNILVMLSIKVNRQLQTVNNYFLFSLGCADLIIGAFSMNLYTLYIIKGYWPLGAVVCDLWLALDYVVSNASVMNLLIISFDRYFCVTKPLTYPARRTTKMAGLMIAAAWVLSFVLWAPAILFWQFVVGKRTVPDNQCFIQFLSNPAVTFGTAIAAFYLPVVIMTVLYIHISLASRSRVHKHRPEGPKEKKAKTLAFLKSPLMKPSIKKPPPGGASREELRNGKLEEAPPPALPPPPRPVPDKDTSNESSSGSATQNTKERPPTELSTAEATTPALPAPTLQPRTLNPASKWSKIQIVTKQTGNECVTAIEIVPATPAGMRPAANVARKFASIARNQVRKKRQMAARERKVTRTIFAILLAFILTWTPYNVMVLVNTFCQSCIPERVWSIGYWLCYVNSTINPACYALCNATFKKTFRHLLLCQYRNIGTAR

Ki [1]: 0.29 nM
Ki [2]: 23.4 nM
Ki [3]: 646 nM
Ki [4]: 11.7 nM
Structure (SMILES): CN(CCCCCCNCCCCCCCCNCCCCCCN(CN1c2ccccc2C(=O)Nc2cccnc21)CN1c2ccccc2C(=O)Nc2cccnc21)CN1c2ccccc2C(=O)Nc2cccnc21 [methoctramine analog 5]
